Data set [1] is described as follows: Phase 1 open-label crossover drug-drug interaction study: pharmacokinetics of warfarin with or without ethyl eicosapentaenoate. The conditions noted are these: for AUC0-inf LSGM (least squares geometric mean) / Cmax LSGM (least squares geometric mean): W = warfarin (25 mg) administered alone; for effect of co-administration with ethyl eicosapentaenoate on Tmax: compared with Tmax when administered alone; for AUC0-inf / AUC0-last / Cmax / Tmax / Kel: plasma.
Text: Twenty-five out of the twenty-six enrolled subjects completed the study. One enrolled subject withdrew consent and disconsinuted prematurely. […] On each of Day 8 through Day 35, all subjects received about 4 g of ethyl eicosapentaenoate (oral) as described herein.

The subject of data set [2] is international normalized ratio (INR). The experiment in a line: Phase 1 drug-drug interaction study: anticoagulation pharmacodynamics of warfarin (INR). It is filed as in vivo, healthy subjects. Set-up: AUCINR Mean (SD) / AUCINR Median / AUCINR LSGM: unit not given beside the values. An excerpt: Primary anticoagulation pharmacodynamic endpoints were maximum international normalized ratio (INRmax) and plasma international normalized ratio time curve (AUCINR).

[3] abbreviates: warfarin 25 mg + ethyl eicosapentaenoate 4 g.
Setting [4] is: least squares geometric mean, mixed models.

`CC(=O)C[C@H](c1ccccc1)c1c(O)c2ccccc2oc1=O` [R-Warfarin, R-warfarin]: in data set [1], the “AUC0-inf LSGM (least squares geometric mean)” value was 80,486 ng · h/mL, the “Cmax LSGM (least squares geometric mean)” value is listed as 1659.6 ng/mL and the “effect of co-administration with ethyl eicosapentaenoate on Tmax” value is given as “did not significantly affect”. In data set [1] (oral warfarin 25 mg alone), the AUC0-inf is 82,620 (19,725) ng · h/mL; the AUC0-last was 77,539 (17,374) ng · h/mL; the Cmax is recorded as 1766 (673) ng/mL; the Tmax is 1.0 (0.5, 9.0) h. Besides, in data set [1] (setting [3]), the AUC0-inf was 82,460 (22,798) ng · h/mL, the AUC0-last is reported as 77,117 (19,505) ng · h/mL, the Cmax is recorded as 1865 (592) ng/mL and the Kel is 0.016 (0.005) 1/h. For the same compound, the Tmax in data set [1] (setting [3]) is recorded as 1.0 (0.5, 1.5) h.

With `CC/C=C\C/C=C\C/C=C\C/C=C\C/C=C\CCCC(=O)OCC` [ethyl eicosapentaenoate, all-cis eicosa-5,8,11,14,17-pentaenoic acid ethyl ester], the “anticoagulation pharmacodynamic effects compared to warfarin alone” value in data set [2] (in vivo) is given as “did not have an effect”.

Take `CC(=O)C[C@@H](c1ccccc1)c1c(O)c2ccccc2oc1=O` [S-Warfarin, S-warfarin]: in data set [1], the “AUC0-inf LSGM (least squares geometric mean)” value is on record as 58,344 ng · h/mL, the “Cmax LSGM (least squares geometric mean)” value is given as 1715.9 ng/mL and the “effect of co-administration with ethyl eicosapentaenoate on Tmax” value is listed as “did not significantly affect”. Also, in data set [1] (oral warfarin 25 mg alone), the AUC0-inf is on record as 60,216 (15,009) ng · h/mL, the AUC0-last was 59,253 (15,429) ng · h/mL, the Cmax is 1836 (729) ng/mL and the Kel is on record as 0.020 (0.005) 1/h. In addition, the Tmax in data set [1] (oral warfarin 25 mg alone) is recorded as 1.0 (0.5, 9.0) h. Moreover, in data set [1] (setting [3]), the AUC0-inf is on record as 60,253 (16,204) ng · h/mL, the AUC0-last is given as 59,134 (16,451) ng · h/mL, the Cmax is given as 1973 (616) ng/mL and the Kel was 0.020 (0.005) 1/h. In data set [1] (setting [3]), the Tmax was 1.0 (0.5, 1.5) h.

In the case of `CC(=O)CC(c1ccccc1)c1c(O)c2ccccc2oc1=O` (stereo not drawn) [Warfarin, warfarin], in data set [2] (in vivo), the “AUCINR, concomitant vs warfarin alone” value is recorded as “similar” and the “INRmax, concomitant vs warfarin alone” value is listed as “similar”. Moreover, in data set [2] (setting [4]), the “AUCINR LSGM” value came out at 216.2 and the “INRmax LSGM” value amounted to 1.80. Besides, the “Median time to INRmax (TINRmax), co-administered vs warfarin alone” value in data set [2] (p=0.026) is “significantly lower”. For the same compound, the “TINRmax Median” value in data set [2] (time to INRmax, warfarin 25 mg, EPA 4 g) is 48.0 h. In data set [2] (warfarin 25 mg, EPA 4 g), the “AUCINR Mean (SD)” value is listed as 217.8 (27.7), the “AUCINR Median” value was found to be 213.4, the “INRmax Mean (SD)” value was 1.86 (0.48) and the “INRmax Median” value came out at 1.74.

The record behind these values is patent US20140249214A1 (AMARIN PHARMACEUTICALS IRELAND LIMITED, priority 2013, published 2014).
